Test [1] has as its system phospho-IRE1α. The test is described as follows: Western immunoblot of phospho-IRE1α (IRE1α kinase), HT1080 cells. It is filed as cell-based, human. The note with it: preincubated 16 hours, 2.5 μM; Tm 5 μg/ml. The method, then: (§1) Cells (2×10^6) were cultured in 10-cm dishes, collected using a cell scraper at 4° C., and lysed by addition of 150 μl cell lysis buffer [50 mM Tris pH 7.4, 150 mM NaCl, 10% glycerol, 0.5% Triton X-100. 0.5% NP-40, 2 mM Na3VO4, 20 mM beta-glycerophosphate, 10 mM NaF, 1 mM DTT, 1 mM PMSF). Lysates were centrifuged for 5 min at 10,000×g, and proteins (˜40 μg) were resolved by SDS-PAGE followed by semi-dry transfer to nitrocellulose membranes. Membranes were blocked in TBS-5% milk supplemented with 0.1% Tween-20. The blots were then probed overnight with relevant antibodies, washed, and incubated for 2 hours with species-specific secondary antibodies conjugated to horseradish peroxidase. After washing in block solution, immunoreactive material was detected by enhanced chemiluminescence (SuperSignal West Dura Extended, Pierce, Inc., Rockville, Ill.).
HT1080 cells were exposed to DMSO vehicle (lane 1), irestatin 9389 (2.5 μM; lane 2) for 16 hours or Tm (5 μg/ml; lane 3) for 8 hours. Following treatments, cells were harvested, lysed, and analyzed by immunoblotting using anti-Grp78 antibody (top) or anti-actin (bottom) as a loading control. […] Cell lysates were analyzed by Western immunoblotting using anti-IRE1α (bottom) or anti-phospho-IRE1α antibodies (top). […] Lysates were analyzed by Western blot using antisera specific for phospho-JNK1 (top) or total JNK1 (bottom). […]
(In western blotting, separated proteins are transferred to a membrane and probed.)

Test [2] relates to ATF6. Kind of test: Western blot of ATF6 cleavage, hypoxic HT1080 cells. To be noted: 2.5 μM. It is filed as cell-based, human. As to the method:
as §1
A. Effect of irestatin 9389 on PERK and ATF6 pathways. […] Protein lysates were analyzed by Western blot analysis using antisera specific for ATF6 (top), CHOP/GADD153 (middle) or actin (bottom). […] Cells were harvested, counted, and allowed to grow under normal culture conditions for 11-12 days. […] D. Quantification of clonogenic survival assay. […] F. Quantification of TUNEL-positive cells. […] Cells were harvested at the indicated times and counted by hemocytometer. Values represent the mean calculated from triplicate experiments+/−SEM. […]

With `Cc1csc(NC(=O)CSc2nc3c(c(C(F)(F)F)c2C#N)CCC3)n1` [Compound 9389], in test [1], the “levels of phospho-IRE1α after addition of Tm” value is recorded as “rapid increase in levels of phospho-IRE1α”. In test [2], the “proteolytic cleavage of ATF6 into active 50 kDa form” value is given as “significantly increased the proteolytic cleavage of ATF6”.

Values taken from US20130150399A1, “INHIBITORS OF THE UNFOLDED PROTEIN RESPONSE AND METHODS FOR THEIR USE” (The Board of Trustees of the Leland Stanford Junior …, priority 2006, published 2013).
